“And” between values parts separate entries of the source, which are not always exact repeats. Equal entries are not always repeated.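 All cell lines were grown in 96-well plates and treated with compound for 48 hours. GI50: concentration for 50% inhibition of growth. TGI: concentration producing complete growth inhibition.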
What was measured:
Test in all cases: NCI anticancer screen, dose series, 48 h
NCI-H522 lung = test system: NCI-H522 lung
SNB-19 CNS = test system: SNB-19 CNS
HCT-15 colon = test system: HCT-15 colon
RXF 393 renal = test system: RXF 393 renal
CAKI-1 renal = test system: CAKI-1 renal
HCT-116 colon = test system: HCT-116 colon
M14 melanoma = test system: M14 melanoma
EKVX NSCLC = test system: EKVX NSCLC
HCC-2998 colon = test system: HCC-2998 colon
TK-10 renal = test system: TK-10 renal

| SMILES | TGI (NCI-H522 lung) [µM] | TGI (SNB-19 CNS) [µM] | GI50 (HCT-15 colon) [µM] | TGI (HCT-15 colon) | GI50 (RXF 393 renal) [µM] | TGI (RXF 393 renal) [µM] | GI50 (CAKI-1 renal) [µM] | TGI (CAKI-1 renal) | GI50 (HCT-116 colon) [µM] | TGI (HCT-116 colon) [µM] | GI50 (M14 melanoma) [µM] | TGI (M14 melanoma) | GI50 (EKVX NSCLC) [µM] | TGI (EKVX NSCLC) | GI50 (HCC-2998 colon) [µM] | TGI (HCC-2998 colon) | GI50 (TK-10 renal) [µM] | TGI (TK-10 renal) | GI50 (NCI-H522 lung) [µM] | GI50 (SNB-19 CNS) [µM] |
| --- | --- | --- | --- | --- | --- | --- | --- | --- | --- | --- | --- | --- | --- | --- | --- | --- | --- | --- | --- | --- |
| COc1ccc2cc1Oc1ccc(cc1)CC1c3c(cc(OC)c4c3Oc3cc5c(cc3O4)CCNC5C2)CCN1C (centres undefined) | 3.27 | 4.32 | 1.86 | 3.73 µM and 4.31 µM | 0.288 | 0.883 | 1.67 | 5.77 µM and 3.62 µM | 1.84 | 3.32 | 1.73 | 6.83 µM and 3.25 µM | 1.71 | 3.73 µM and 3.19 µM | 1.2 | 2.53 µM and 2.5 µM | 1.74 | 3.68 µM and 3.12 µM |  |  |
| Cc1cc(=O)[nH]c2c1C(=O)c1c(C)cc(=O)n(C)c1C2=O | 0.187 | 0.0358 |  | 0.264 µM |  | 0.281 |  | 0.258 µM |  | 0.253 |  | 0.0282 µM |  | 0.366 µM |  | 0.058 µM |  | 0.418 µM |  |  |
| Clc1ccc(/C=C/c2csnn2)cc1 | > 100 | > 100 |  | > 100 µM |  | > 100 |  | > 100 µM |  | > 100 |  | > 100 µM |  | > 100 µM |  | > 100 µM |  | > 100 µM |  |  |
| CC(C)OC(=O)c1cc(NC(=S)OC(C)C)ccc1Cl | 26.6 | > 56.3 |  | 53.4 µM |  | 62.7 |  | 35.3 µM |  | > 54.6 |  | > 79.6 µM |  | 32.7 µM |  | > 57.5 µM |  | 52.4 µM |  |  |
| COc1ccc(-c2nn(-c3cccc(Cl)c3)cc2-c2c(C#N)c(=O)n3[nH]c(-c4ccc(C)o4)nc3c2C#N)cc1 | 23.1 | > 50 | 16.6 | > 50 µM | 4.11 | > 50 | 6.8 | > 50 µM | 2.53 | 22.5 | 5.49 | 22.4 µM | 1.54 | 40.8 µM | 7.43 | 45.7 µM | 12.4 | > 50 µM | 4.96 | 8.63 |
| Nc1cccc(C(=O)/C=C/c2ccccc2O)c1 | > 100 | > 100 |  | > 100 µM |  | > 100 |  | > 100 µM |  | > 100 |  | > 100 µM |  | > 100 µM |  | > 100 µM |  | > 100 µM |  |  |
| COc1cc(C(=O)/C=C/c2c(C)n([O-])c3ccc(Cl)cc3[n+]2=O)cc(OC)c1OC | 2.8 | > 100 | 4.26 | 30.9 µM | 3.37 | 91 | 10.3 | > 100 µM | 2.75 | 12.2 | 4.59 | > 100 µM | 8.46 | > 100 µM | 12.8 | 38.7 µM | 7.83 | > 100 µM | 1.12 | 30.2 |
| COc1ccc(-c2nc3sccn3c2/C=C/C(=O)c2cc(OC)c(OC)c(OC)c2)cc1 | > 22.2 | > 100 | 3.33 | > 83 µM | 3.09 | > 100 | 2.02 | > 100 µM | 2.19 | 12.6 | 2.52 | > 27.6 µM | 3.1 | > 100 µM | 3.03 | 14.4 µM | 5 | > 100 µM | 4.16 | 3.32 |
| Clc1cc(Cl)cc(Nc2ccc3c(OCCCN4CCOCC4)cccc3n2)c1 | 3.57 | 4.39 | 1.75 | 3.52 µM | 2.26 | 5.14 | 7.59 | 22.9 µM | 1.82 | 3.56 | 1.86 | 4 µM | 2.95 | 9.15 µM | 1.82 | 3.51 µM | 2.38 | 5 µM | 1.82 | 2.08 |
| COc1cc(/C=C/C(=O)/C=C/c2ccc(-n3ccnc3)cc2)ccc1O | 18.9 | 47.7 | 2.48 | 6.89 µM | 1.81 | 3.42 | 3.24 | 11.5 µM | 1.45 | 2.93 | 2.24 | 5.98 µM | 13.2 | 42 µM | 1.79 | 3.42 µM | 4.42 | 36.3 µM | 4.98 | 4.37 |
| CN(C)CN(C)c1nc(N(C)C)nc(N(C)C)n1 | > 100 | > 100 |  | > 100 µM |  | > 100 |  | > 100 µM |  | > 100 |  | > 100 µM |  | > 100 µM |  | > 100 µM |  | > 100 µM |  |  |
| COc1ccc([C@H]2c3[nH]c4ccccc4c3C[C@H]3C(=O)N(CCCCCCC(=O)NO)CC(=O)N23)cc1 | > 33.3 | > 33.3 | 9.05 | > 33.3 µM | 1.33 | 6.12 | 1.68 | 13.9 µM | 1.07 | > 33.3 | 1.75 | > 33.3 µM | 13.4 | > 33.3 µM | 1.15 | 5.34 µM | 2.86 | 32.7 µM | 1.4 | 4.34 |
| CN1CCC(C(=O)Nc2n[nH]c3nnc(-c4ccccc4)cc23)CC1 | > 25 | > 25 | > 25 | > 25 µM | 12.3 | > 25 | > 25 | > 25 µM | > 23.6 | > 25 | > 25 | > 25 µM | > 25 | > 25 µM | > 25 | > 25 µM | > 25 | > 25 µM | > 25 | > 25 |
| O=[N+]([O-])/C(=C/C=C/c1ccccc1)c1ccccc1 | 4.08 | 10.6 | 1.86 | 4.22 µM | 1.81 | 3.84 | 0.805 | 3.06 µM | 1.88 | 3.62 | 2.02 | 5.31 µM | 6.03 | 16.3 µM | 1.92 | 4.14 µM | 2.04 | 4.46 µM | 1.62 | 3.33 |
| COC(=O)c1sc(=S)c2sc(C(=O)OC)c(C(=O)OC)c2c1C(=O)OC | 91.5 | > 100 | 38 | > 100 µM | 41.7 | > 100 | 58.1 | > 100 µM | 45 | > 100 | 32.5 | > 100 µM | 89.9 | > 100 µM | 20.5 | 76.1 µM | 18.1 | 89.8 µM | 31 | 86.7 |
| CCCCCCCC(=O)OC[n+]1cccc(-c2c(COC(=O)NC(C)C)c(COC(=O)NC(C)C)c3n2CCC3)c1 | > 100 | > 100 |  | > 100 µM |  | 97.2 |  | > 87.5 µM |  | > 100 |  | > 100 µM |  | > 100 µM |  | > 100 µM |  | > 100 µM |  |  |
| CN(C)CC(=O)N1CCc2c([nH]c3ccccc23)C1c1cccnc1 (centres undefined) | > 100 | > 100 |  | > 100 µM | > 100 | > 100 |  | > 100 µM |  | > 100 |  | > 100 µM |  | > 100 µM |  | > 100 µM |  | > 100 µM |  |  |
| O=C(N[C@H]1CC2(C=C(I)C(=O)C(I)=C2)OC1=O)OCc1ccccc1 | 26.2 | 47.6 |  | 44.2 µM |  | 28.8 |  | 36.3 µM |  | 29.6 |  | 31.2 µM |  | 27.3 µM |  | 34.6 µM |  | 32.3 µM |  |  |

From PubChem BioAssay (NCI)
